Measured values taken from patent US11077102B2, “Multidose package, course and method of treatment for delivering predetermined multiple doses of a pharmaceutical” (BAUSCH HEALTH IRELAND LIMITED, priority 2009, dated 2021).
Each block holds one molecule with its values, some of them ahead of it.

Experiment: Stability of formulation in multi-dose container (Rexam 2.05 mL Sof' Airless)
Assay type: physicochemical
Procedure: Once a candidate package is identified, stability trials are carried out to determine compatibility of the formulation with the container components. Testing is carried out on the formulation packed in the selected containers and stored under a number of controlled conditions (e.g., 40° C./75% RH and 25° C./60% RH) for a specified time up to the expiry date of the product. Tests will include determination of imiquimod content, preservative content, impurity content, appearance, microscopic examination, pH levels and visual container assessment against set standards.
Two batches of Aldara cream were dispensed into Rexam™ 2.05 mL Sof' Airless™ containers. The batches had been previously tested to determine the amount of preservatives (methyl hydroxybenzoate (MHB), propyl hydroxybenzoate (PHB) benzyl alcohol) and imiquimod, at the beginning of the study in Table 4 below.
The batches were stored under various conditions and then analyzed at 2 months, 4 months, 5.5 months and 13 months as shown in Tables 5 to 7 below. The presence of the contaminant 4-OH-R837 was also tested. NOTE: 4-OH-R837 is an Imiquimod impurity.

Impurity level in Aldara cream in multi-dose container (up to and including 13 months): below detection limits
SMILES: CC(C)Cn1cnc2c(=O)[nH]c3ccccc3c21 [4 Hydroxy Imipquimod, 4-Hydroxyimiquimod]

SMILES: COC(=O)c1ccc(O)cc1 [MHB, methyl hydroxybenzoate]
Stability in Aldara cream in multi-dose container (up to and including 13 months, both 25 C/60% RH and 40 C/75% RH): good stability

Benzyl alcohol levels in Aldara cream in multi-dose container (40 C/75% RH, up to 13 months, lower specification limit 1.00% w/w): just below the lower specification limit
SMILES: OCc1ccccc1 [Benzyl alcohol, benzyl alcohol]
